Reference: patent US8431341B2, “Compositions and methods for the identification of inhibitors of protein synthesis” (priority 2006, dated 2013)
[5mC] = 5-methylcytosine; m = 2'-O-methyl; r = 2'-OH (RNA)

Test system: fluorescent peptide that mimics phenylalanine synthetase
Experiment: Binding of yeast tRNAPhe ASL RNA oligomers to a phenylalanine synthetase peptide mimic
Details: compared with the native RNA oligomer or the unmodified RNA oligomer; FIG. 2
Method: A set of experiments was conducted to identify an RNA oligomer substrate to be used in an assay to identify substrates for use in identifying inhibitors of tRNA binding to a phenylalanine synthetase from yeast. A peptide was first identified for use as a phenylalanine synthetase mimic. The peptide was labeled with a fluorescent peptide for use in detection in binding assays.
A series of RNA oligomer substrates were also synthesized containing modified nucleotides (FIG. 2).
To determine binding affinity, an assay of ASL for yeast tRNA^phe was prepared varying only in the number of post-transcriptional nucleotide base modifications. This array was probed using a peptide from a phage display library that bound to an ASL containing 3 modifications. The affect of modification on the affinity of a peptide to an RNA substrate-sequence (Sequence A in FIG. 2: 5′-CCAGACUGAAGAUCUGG) (SEQ ID NO: 18) is the primary unmodified yeast ASL^Phe. Sequence B in FIG. 2 (5′-CCAGACmUGm AAGAUm^5CUGG) (SEQ ID NO: 19) is a template ASL sequence indicating the locations of the modified nucleotides for the various combinations of modified nucleotide bases in the mimics of the anticodon stem loop. Sequence C in FIG. 2 (5′-CCAGACmUGmAAm1GAΨm^5CUGG) (SEQ ID NO: 20) is the sequence of the native yeast tRNA^phe. […]

## 5′-CCAGACmUGm AAGAUm^5CUGG (CCAGACUGAAGAUCUGG; sugars from the 5' end r5 m1 r1 m1 r9, [5mC] at 14, backbone not given here; listed as Yersinia enterocolitica)
  affinity for a fluorescent peptide that mimics phenylalanine synthetase: greater affinity
